From PubChem BioAssay (NCI)
Values joined by “and” are separate entries in the source; they are usually repeats but may differ in a detail not shown here. Equal values may be shown once.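 Method: 48-hour compound exposure of cells in 96-well plates, five concentrations, linear interpolation of endpoints. At the GI50, growth is halved. The concentration for full growth arrest is given as TGI.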

Experiments:
Assay in all cases: growth of human tumour cells (NCI), 48 h
HOP-92 NSCLC = system: HOP-92 NSCLC
HCT-116 colon = system: HCT-116 colon
OVCAR-5 ovarian = system: OVCAR-5 ovarian
ACHN renal = system: ACHN renal
NCI-H460 lung = system: NCI-H460 lung
RXF 393 renal = system: RXF 393 renal
OVCAR-8 ovarian = system: OVCAR-8 ovarian
UO-31 renal = system: UO-31 renal
SF-539 CNS = system: SF-539 CNS
HCC-2998 colon = system: HCC-2998 colon

Row | Structure (SMILES) | TGI (HOP-92 NSCLC) [µM] | TGI (HCT-116 colon) | TGI (OVCAR-5 ovarian) [µM] | TGI (ACHN renal) [µM] | TGI (NCI-H460 lung) [µM] | TGI (RXF 393 renal) | TGI (OVCAR-8 ovarian) | TGI (UO-31 renal) | TGI (SF-539 CNS) | TGI (HCC-2998 colon) [µM] | GI50 (HOP-92 NSCLC) [nM] | GI50 (HCT-116 colon) | GI50 (SF-539 CNS) | GI50 (OVCAR-5 ovarian) [nM] | GI50 (HCC-2998 colon) [nM] | GI50 (ACHN renal) | GI50 (NCI-H460 lung) [nM] | GI50 (OVCAR-8 ovarian) | GI50 (UO-31 renal) [nM]
1 | O=c1[nH]c(=S)[nH]c2c1C(c1ccc([N+](=O)[O-])cc1)c1c([nH]c(=S)[nH]c1=O)O2 | > 100 | > 100 µM | > 100 | > 100 | > 100 | > 100 µM | > 100 µM | > 100 µM | – | – | – | – | – | – | – | – | – | – | –
2 | Cc1cc(Nc2ccc(S(=O)(=O)O)c3cc(S(=O)(=O)O)cc(S(=O)(=O)O)c23)c2ccccc2n1 | – | > 100 µM | > 100 | > 100 | > 100 | > 100 µM | > 100 µM | > 100 µM | > 100 µM | > 100 | – | – | – | – | – | – | – | – | –
3 | Nc1ncnc2c1[nH]c(=O)n2-c1ccccc1 | > 100 | > 100 µM | > 100 | > 100 | > 100 | – | > 100 µM | > 100 µM | > 100 µM | > 100 | – | – | – | – | – | – | – | – | –
4 | COc1ccc(CN2C(=O)/C(=C\c3cc(OC)c(OC)c(OC)c3)c3ccccc32)cc1 | 7.3 | 3.05 µM | 6.48 | 4.41 | 4.09 | – | > 100 µM | 2.91 µM | 4.33 µM | 3.31 | 1960 | 1.61 µM | 2.17 µM | 2710 | 1780 | 2.06 µM | 2080 | 3.05 µM | 1180
5 | O=C(c1ccccn1)C1(N2CCCCC2)CCCCC1 | 64.9 | > 100 µM | > 100 | > 100 | – | – | > 100 µM | > 100 µM | > 100 µM | > 100 | – | – | – | – | – | – | – | – | –
6 | Cc1ccc(N(Cc2ccccc2)Cc2ccccc2)cc1 | – | > 100 µM | > 100 | > 100 | > 100 | > 100 µM | > 100 µM | > 100 µM | > 100 µM | – | – | – | – | – | – | – | – | – | –
7 | N[C@@H](CCC(=O)NCP(=O)(O)O)C(=O)O | – | > 100 µM | > 100 | > 100 | > 100 | – | > 100 µM | > 100 µM | > 100 µM | > 100 | – | – | – | – | – | – | – | – | –
8 | Nn1c(-c2ccccc2)n[nH]c1=O | > 100 | > 100 µM | > 100 | > 100 | > 100 | – | > 100 µM | > 100 µM | > 100 µM | > 100 | – | – | – | – | – | – | – | – | –
9 | COc1cccc(Nc2nc(-c3cccs3)nc3cc(OC)c(OC)cc23)c1 | 51.9 | 54 µM | > 100 | 50.3 | 79.4 | – | 78.5 µM | > 100 µM | 45.7 µM | – | – | – | – | – | – | – | – | – | –
10 | O=[N+]([O-])c1ccc(Cl)cc1N/N=C/c1ccnc2ccccc12 | – | > 100 µM | – | > 100 | > 100 | > 100 µM | > 100 µM | > 100 µM | 49.5 µM | > 100 | – | – | – | – | – | – | – | – | –
11 | CC1CN(C)c2ccccc2N=C1NN (stereo not given) | – | > 100 µM | > 100 | > 100 | > 100 | 78.6 µM | > 100 µM | > 100 µM | – | – | – | – | – | – | – | – | – | – | –
12 | C[C@]12CC[C@H](O)CC1=CC[C@@H]1[C@@H]2CC[C@]2(C)C(=N/N)/C(=N\O)C[C@@H]12 | 11.8 | > 100 µM | > 100 | > 100 | – | > 100 µM | > 100 µM | > 100 µM | > 100 µM | – | – | – | – | – | – | – | – | – | –
13 | CC1(C(=O)O)CCC2(C)CCC3(C)C(=CC(=O)C4C5(C)CCC(O)C(C)(C)C5CCC43C)C2C1 (stereo not given) | – | 63 µM | 82.9 | 42.2 | – | 83 µM | > 100 µM | 57.1 µM | 32.5 µM | 87.3 | – | – | – | – | – | – | – | – | –
14 | CC(=O)N1C(C(=O)NC2CCCCC2)CSC1c1ccccc1 (stereo not given) | > 100 | > 100 µM | > 100 | > 100 | > 100 | – | > 100 µM | > 100 µM | > 100 µM | > 100 | – | – | – | – | – | – | – | – | –
15 | CCOP(=O)(OCC)C(F)(F)c1ccc(CC(NC(=O)OC(C)(C)C)C(=O)O)cc1 (stereo not given) | > 10 | > 10 µM | > 10 | > 10 | > 10 | – | > 10 µM | > 10 µM | > 10 µM | > 10 | – | – | – | – | – | – | – | – | –
16 | Cc1ccc(-c2cc(-c3ccco3)c(C#N)c(=S)n2C2OC(CO)C(O)C(O)C2O)cc1 (stereo not given) | – | 18.5 µM and > 100 µM | > 100 | > 100 | > 100 | 45.4 µM and 45.3 µM | 22.6 µM and > 100 µM | 52 µM and > 100 µM | 28 µM and > 100 µM | > 100 | – | 4.91 µM and 25.3 µM | 11.5 µM and 37.2 µM | – | – | 25.6 µM and 53.4 µM | – | 4.73 µM and 30.8 µM | –
17 | Cc1cccc(Cn2c3c(c4cc(O)ccc42)C(=O)c2ccccc2C3=O)c1 | – | > 100 µM | – | > 100 | > 100 | 21.2 µM | > 93.2 µM | > 100 µM | 26.9 µM | – | – | – | – | – | – | – | – | – | –
18 | O=C(NCc1ccccc1)c1n[nH][nH]c1=O | – | > 100 µM | > 100 | > 100 | > 100 | > 100 µM | > 100 µM | > 100 µM | – | > 100 | – | – | – | – | – | – | – | – | –
19 | Oc1ccc(Cc2cc(Cc3ccc(O)cc3)cc(Cc3ccc(O)cc3)c2)cc1 | – | > 50 µM | > 50 | > 50 | > 50 | – | > 50 µM | > 50 µM | > 50 µM | > 50 | – | – | – | – | – | – | – | – | –
